Experimental data from US20120046321A1, “METHODS OF TREATING ATRIAL FIBRILLATION WITH P38 INHIBITOR COMPOUNDS” (INTERMUNE, INC., priority 2005, published 2012).

How the values were obtained:
Format in all cases: in vivo, canine
[1] = tested on: canines with ventricular tachypacing (VTP)-induced congestive heart failure (CHF); experiment: Echocardiographic monitoring of the VTP-induced CHF model (LV function, LA area, CHF signs); details: oral PFD 800 mg three times a day
Description: Briefly, 15 adult mongrel canines (weight 20 to 32 kgs) were divided into 3 groups (n=5 in each group) as follows: Group 1: Normal; Group 2: CHF canines not treated with PFD (or CHF); and Group 3: CHF canines treated with PFD (or CHF+PFD). […] The CHF and CHF+PFD canines underwent placement of a permanent single-chamber pacemaker with the pacing lead positioned in the right ventricular apex followed by radiofrequency catheter ablation of the AV junction to create complete heart block. Canines in the CHF and CHF+PFD groups underwent 3 weeks of VTP at a rate of 220 bpm. Oral PFD (800 mg three times a day) (InterMune, Brisbane, Calif.) was started 2 days prior to the initiation of VTP and was given for the full duration of the pacing period. The CHF and CHF+PFD groups underwent transesophageal echocardiography at the time of pacemaker implantation and at follow-up. Canines in the paced groups underwent weekly transthoracic echocardiography, weekly ECG monitoring to ensure right ventricular capture, and weekly physical examinations. CHF was established by clinical signs, such as, lethargy, peripheral edema, and mucous membrane color changes. Left atrial (LA) size was determined by measuring the LA area by planimetry from 2-D echocardiographic images during diastole from the 2-chamber views. Left ventricular (LV) systolic function was determined by measuring LV fractional shortening at the level of the papillary muscle. Two repeated measurements were made for LA area and LV fractional shortening and the mean value was used for analyses.

[2] = tested on: canines with ventricular tachypacing (VTP)-induced congestive heart failure (CHF); experiment: AF inducibility in open-chest EP study (single extrastimulus and burst pacing)
Description: Briefly, 15 adult mongrel canines (weight 20 to 32 kgs) were divided into 3 groups (n=5 in each group) as follows: Group 1: Normal; Group 2: CHF canines not treated with PFD (or CHF); and Group 3: CHF canines treated with PFD (or CHF+PFD). […] The CHF and CHF+PFD canines underwent placement of a permanent single-chamber pacemaker with the pacing lead positioned in the right ventricular apex followed by radiofrequency catheter ablation of the AV junction to create complete heart block. Canines in the CHF and CHF+PFD groups underwent 3 weeks of VTP at a rate of 220 bpm. […] Effective refractory periods (ERPs) were measured at 12 atrial sites (6 in LA, 6 in RA) using the single extrastimulus protocol (S1S2) at an 8-beat drive train basic cycle lengths (BCLs) of 200, 300, and 400 ms. During stimulation of the contralateral Bachmann's bundle, conduction velocity (CV) was calculated between pairs of plaque electrodes perpendicular to the activation wavefront with a custom-written software. […] Two measures were derived to quantify conduction heterogeneity: 1) absolute conduction heterogeneity, defined as P95-P5 (P95-5), and 2) conduction heterogeneity index, defined as the absolute conduction heterogeneity normalized by the median phase, or P95-5/P50. […]

[3] = tested on: canines with ventricular tachypacing (VTP)-induced congestive heart failure (CHF); experiment: Histologic study of atrial fibrosis (Sirius red)
Description: Briefly, 15 adult mongrel canines (weight 20 to 32 kgs) were divided into 3 groups (n=5 in each group) as follows: Group 1: Normal; Group 2: CHF canines not treated with PFD (or CHF); and Group 3: CHF canines treated with PFD (or CHF+PFD). […] The CHF and CHF+PFD canines underwent placement of a permanent single-chamber pacemaker with the pacing lead positioned in the right ventricular apex followed by radiofrequency catheter ablation of the AV junction to create complete heart block. Canines in the CHF and CHF+PFD groups underwent 3 weeks of VTP at a rate of 220 bpm. Oral PFD (800 mg three times a day) (InterMune, Brisbane, Calif.) was started 2 days prior to the initiation of VTP and was given for the full duration of the pacing period. At the conclusion of the EP study, the animals were euthanized. Atrial tissue samples were fixed in 10% neutral buffered formalin. The samples were processed, embedded in paraffin, and sectioned into 4- to 5-μm-thick sections. The sections were stained in either H&E, Masson's trichrome, or Sirius red. […] To quantify fibrosis, the red pixel content of digitized images (Sirius red-stained) was measured relative to the total tissue area (red and green pixels) with the Adobe Photoshop 7.0 software package. Areas containing blood vessels and perivascular interstitial cells were excluded from fibrosis quantification. […]

With `Cc1ccc(=O)n(-c2ccccc2)c1` [PFD, 5-methyl-1-phenyl-2-(1H)-pyridone] as the compound, how does the “LV fractional shortening after 3 weeks of VTP compared with baseline” value ([1]; CHF+PFD group, p<0.001 vs baseline) read?
Its value is −69±8%.

And the “CHF signs, CHF vs CHF+PFD” value ([1]; 3 weeks VTP)?
Its value is “did not appear to be different”.

What about the “Increase in LA area from baseline at each weekly time point, CHF vs CHF+PFD” value ([1]; 3 weeks VTP) of the same compound?
Its value is “similar”.

And the “Inter-group baseline and weekly LV fractional shortening, CHF vs CHF+PFD” value ([1]; 3 weeks VTP)?
Its value is “similar”.

And the “Mean AF duration” value ([2]; CHF+PFD, p<0.009 vs. CHF (1488±698 secs), Normal 16±25 secs)?
Its value is 12 ± 13 s.

And the “Sustained AF” value ([2]; open-chest experiments, untreated CHF 4/5, p<0.007)?
Its value is “only observed in the untreated CHF canines”.

What about the “LA interstitial fibrosis, histologic finding” value ([3]; Sirius red stained LA sections) of the same compound?
The value was “significant attenuation”.

What about the “Percentage LA fibrosis” value ([3]; Sirius red, p<0.002 vs. CHF group (15.4±2.3%), Normals 3.2±1.0%) of the same compound?
Its value is 8.3±3.0%.
